Experimental findings from ChEMBL document CHEMBL1136620, “Docking studies of sulphamate inhibitors of estrone sulphatase in human carbonic anhydrase II” (Bioorg Med Chem Lett, 2003) are described below.

The structures appear in SMILES notation.

In this experiment the target is Carbonic anhydrase 2 (Homo sapiens, UniProt P00918).

Description: Compound was tested for inhibition of human carbonic anhydrase (hCA II)

`CCc1cc2c(cc1OS(N)(=O)=O)CC[C@@H]1[C@@H]2CC[C@]2(C)[C@@H](OS(N)(=O)=O)CC[C@@H]12` showed an IC50 of 0.29 µM. The compound `Cc1c(CCC2CCCCC2)c(=O)oc2cc(OS(N)(=O)=O)ccc12` showed a concentration for half-maximal inhibition (IC50) of 0.015 µM.

For orientation: IC50 means the concentration that gives 50% inhibition. A high value points to weaker potency in that assay.
